Measured values taken from US20090192137A1, “Dialysis method” (AstraZeneca AB, priority 1993, published 2009).

Tests used:
[1] = Pig study: clearance of iohexol to monitor filter clearance; assay type: in vivo; conditions: Swedish Land Race, plasma and dialysing solution, intravenous, 6000 mg, dialysis filter clearance, measured every half-hour, two experiments
Method: (§1) Before connection of the efferent and afferent blood lines, 20 mL (300 mg/mL) of iohexol (Omnipaque®, Nycomed AB, Lidingö, Sweden) was administered in the ear vein to monitor filter clearance. Two minutes before the start of dialysis, 0.15 μmol/kg of melagatran was given via the right femoral vein as a bolus.
Amounts of iohexol in plasma and dialysing solution were determined at the Laboratory of the Division of Nephrology (Sahlgren's University Hospital, Gothenberg, Sweden) using a Reanalyzer PRX 90 (Provalid AB Lund, Sweden).

[2] = Pig study: concentration of melagatran in plasma and dialysis outlet during dialysis; assay type: in vivo
Method: Two Swedish Land Race pigs weighing 59 and 57 kg respectively were used. Anaesthesia was induced using Ketaminol® (10 mg/kg, i.m. Veterinaria AG, Switzerland) and Dormicum® (1 to 2 mg/kg, i.m. Roche, Basel, Switzerland), followed by, after 20 minutes, Diprivan® ([…] i.v. Zeneca Limited, Macclesfield, Cheshire, United Kingdom), intubated and ventilated at 15 cycles/minute with air containing 2 to 3% Forene® (Abbott Scandinavia AB, Kista. Sweden) using a Servo Ventilator 900C (Siemens Elema, Solna, Sweden).
(§2) The anaesthetised pigs were subjected to bilateral ligation of renal arteries and veins using lateral flank approaches. The wounds were then closed and the animals were placed on their backs. Two catheters (Kimal, K41/3B/LL, Uxbridge, England) were inserted into the right femoral artery and vein for connection to the dialysis equipment. The artery catheter was used to provide blood to (efferent blood line), and the vein catheter to receive blood from (afferent blood line), the dialysis filter. One polyethylene catheter (Intramedic PE-200, Clay Adams, Parsippany, N.J., USA) was inserted into an artery (right saphenous in pig A and brachial in pig B) for blood pressure (MAP) recording (transducer Peter von Berg Medizintechnik GmbH, Kirchseeon/Eglharting, Germany) and for blood samples, pH and blood gas measurements.
(§3) Before the start of dialysis, the LunDia Pro 600 dialysis filter (Gambro, Lund, Sweden) was primed on both sides for 15 minutes with Biosol A201.5 glucose (Pharmalink, Solna, Sweden) dialysis concentrate diluted 1:35 using a Gambro AK-100 (Grambro. Lund, Sweden) haemodialysis equipment (see FIG. 5). The dialysis concentrate was supplemented with melagatran (35 μM; thus providing 1 μM after dilution). The flow rate was adjusted to 500 mL/min on the dialysing solution side and to 250 mL/min on the blood side of the membrane by separate pumps. Pressure was measured (transducer Peter von Berg Medizintechnik) on both sides of the dialysis membrane.
as §1
After connection of blood lines and two minutes after the administration of the melagatran bolus dose, dialysis was started and carried out for 3 hours. Then, the procedure was interrupted, the blood lines disconnected and the filter and blood lines washed by pumping saline instead of blood to check for the presence of macroscopic blood clots.
The amount of melagatran in plasma was quantified using liquid chromatographic and mass spectrometric methods (BA-285, AstraZeneca R&D, Mölndal, Sweden).

thrombin [3] = biological target: T1, thrombin (Sus scrofa, UniProt Q19AZ8); conditions: TAS equipment, during dialysis session
Method: For the determination of activated partial thromboplastin time (APTT), ecarin clotting time (ECT) and the amount of melagatran in plasma, twelve aliquots of blood were drawn at specific time points into plastic tubes containing one volume of 0.13 M sodium citrate. Plasma was recovered after immediate centrifugation (10,000 g for 5 minutes) and stored at −20° C. prior to analysis. For the determination of the amount of iohexol in plasma, blood was drawn in heparinized tubes, centrifuged is (10,000 g for 5 minutes) and stored at −20° C. prior to analysis.
ECT was determined in 30 μL citrate plasma using a TAS device (Thrombolytic Assessment System, Cardiovascular Diagnostics Inc., Raleigh, N.C.) and appropriate solid reagent test cards, as recommended.

[4] = tested on: anaesthetised pigs without kidney function; experiment: Pig study: prevention of coagulation and maintained filter function during haemodialysis; assay type: in vivo
Text: The aim of this study was to test whether melagatran, given via the dialysing solution during dialysis could prevent coagulation and allow a maintained filter function throughout the session in acute experiments with anaesthetised pigs without kidney function.
To avoid very early thrombotic occlusion of blood lines and filters, which, if observed, would have prevented the drawing of meaningful conclusions regarding the utility of the method, an i.v. bolus dose of melagatran was given immediately before the start of extracorporeal blood circulation in these experiments.
as §2
as §3, with “membrane. […]” for “membrane.”

thrombin [5] = biological target: T1, thrombin; conditions: during dialysis session
Method: For the determination of activated partial thromboplastin time (APTT), ecarin clotting time (ECT) and the amount of melagatran in plasma, twelve aliquots of blood were drawn at specific time points into plastic tubes containing one volume of 0.13 M sodium citrate. Plasma was recovered after immediate centrifugation (10,000 g for 5 minutes) and stored at −20° C. prior to analysis.
APTT was determined using a KC10 A micro coagulometer (Amelung, Lemago, Germany). 25 μL of citrate plasma was incubated with 25 μL of PTT-Automate reagent (Diagnostica Stago, Asnieres, France) for 3 minutes. Coagulation was started using 25 μL of 0.025 M CaCl2 (Diagnostica Stago, Asniéres. France) and the time taken to the start of coagulation was measured.

| SMILES | clearance [1] [mL/min] | concentration at 2 min ([2]; Swedish Land Race, pig, plasma, iv, 0.15 μmol/kg, start of dialysis, 2 minutes after i.v. bolus dose, both pigs, read-out: concentration of melagatran in plasma (efferent blood)) [nM] | time to equilibration ([2]; acutely anuric pig) | concentration of melagatran in the dialysis outlet, higher than on the blood side ([2]; except the very first sample at the start of dialysis) | concentration of melagatran in plasma, level-off ([2]; over the first ˜0 minutes of dialysis, then quite constant, dialysing solution 1 μM expected) | ecarin clotting times (ECT), relation to drug concentration in plasma (thrombin [3]) | macroscopic thrombi in filters and tubing after dialysis ([4]; 3 hour dialysis, both pigs, washed with saline over 15 minutes) | filter function ([4]; judged from iohexol clearance, 3 hours of dialysis) | pressure in the efferent blood-line ([4]; one pig, 3 hour dialysis, stable) | APTT times, relation to melagatran concentration (thrombin [5]) |
| --- | --- | --- | --- | --- | --- | --- | --- | --- | --- | --- |
| CC(=O)N(CC(O)CO)c1c(I)c(C(=O)NCC(O)CO)c(I)c(C(=O)NCC(O)CO)c1I (stereo not shown) [iohexol] | ~150 |  |  |  |  |  |  |  |  |  |
| N=C(N)c1ccc(CNC(=O)[C@@H]2CCN2C(=O)[C@H](NCC(=O)O)C2CCCCC2)cc1 [melagatran, HOOC—CH2—(R)Cgl-Aze-Pab-H] |  | 900 to 1000 | within one hour | about 0.2 μM | about 0.25 μM | closely reflected drug concentrations in plasma | macroscopic thrombi had not been formed | filter function was maintained over the full 3 hours of dialysis | about 275 mm Hg | proportional to the logarithm of melagatran concentration |
